Among the test systems are A549 NSCLC; ACHN renal; BT-549 breast; HCT-15 colon; KM12 colon; LOX IMVI melanoma; NCI-H522 lung; OVCAR-5 ovarian; SF-268 CNS; SF-539 CNS.
What all share (assay): NCI-60 cell line screen, 48 h

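Five concentrations, 48 hours, 96-well plates. TGI: total growth inhibition.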

Consider `Cc1cn(S(=O)(=O)c2ccccc2)c2c(OCc3ccccc3)cc([N+](=O)[O-])cc12`, for which the TGI in the assay on A549 NSCLC, in the assay with ACHN renal, with BT-549 breast, with HCT-15 colon, with KM12 colon and in the assay with LOX IMVI melanoma was over 100 µM each time. In addition, the TGI in the assay on NCI-H522 lung, in the assay with OVCAR-5 ovarian, with SF-268 CNS and with SF-539 CNS was over 100 µM in each case.
For `N=c1oc2ccc3ccccc3c2cc1-c1nc2ccccc2c(=O)[nH]1`, the TGI is 73.3 µM in the assay on A549 NSCLC; 34 µM in the assay with ACHN renal; 68.5 µM in the assay with BT-549 breast; over 100 µM in the assay with HCT-15 colon; 43 µM in the assay with KM12 colon; over 100 µM with LOX IMVI melanoma. Moreover, the TGI was 28.8 µM in the assay on NCI-H522 lung, over 100 µM in the assay on OVCAR-5 ovarian, over 100 µM in the assay on SF-268 CNS and over 100 µM with SF-539 CNS.
On to `O=C(O)c1ccc2c(O)c(O)ccc2c1`, for which the TGI in the assay with A549 NSCLC is over 93.8 µM; with ACHN renal, 29.3 µM; with BT-549 breast it was 40.8 µM; in the assay on HCT-15 colon, 55 µM; in the assay with KM12 colon, 31.3 µM; in the assay with LOX IMVI melanoma, 57 µM. Besides, the TGI in the assay with NCI-H522 lung was 36.4 µM; in the assay with OVCAR-5 ovarian it was 57.5 µM; with SF-268 CNS it was 22.3 µM; in the assay with SF-539 CNS it was over 100 µM.
For `COc1cc2ncnc(NS(=O)(=O)c3cc4ccccc4s3)c2cc1OC`, the TGI in the assay with A549 NSCLC, in the assay on ACHN renal, in the assay with BT-549 breast, in the assay with HCT-15 colon, with KM12 colon and with LOX IMVI melanoma was over 100 µM each time. For the same compound, the TGI in the assay with NCI-H522 lung, in the assay on OVCAR-5 ovarian, in the assay with SF-268 CNS and with SF-539 CNS was over 100 µM in each case.
Turning to `CCN(CC)Cc1cc(N=Nc2c(O)ccc3c(N=Nc4ccc(O)c(CN(CC)CC)c4)c(O)ccc23)ccc1O`, the TGI was over 23.5 µM with A549 NSCLC; 7.71 µM in the assay on ACHN renal; 9.11 µM in the assay on BT-549 breast; 4.7 µM with HCT-15 colon; over 21.9 µM in the assay on KM12 colon; 3.37 µM in the assay on LOX IMVI melanoma. The TGI in the assay on NCI-H522 lung was 10.3 µM; in the assay with OVCAR-5 ovarian, over 44.9 µM; with SF-268 CNS, 33.8 µM; in the assay with SF-539 CNS, 9.2 µM.
Regarding `CN1C/C(=C\c2cccs2)C2=NN(c3ccccc3)C(c3cccs3)C2C1` (stereo not given), the TGI in the assay with A549 NSCLC, in the assay on ACHN renal, in the assay with BT-549 breast, in the assay with HCT-15 colon, in the assay with KM12 colon and with LOX IMVI melanoma was over 100 µM throughout. Besides, the TGI is over 100 µM with NCI-H522 lung, over 100 µM with OVCAR-5 ovarian, over 40.6 µM in the assay on SF-268 CNS and over 100 µM with SF-539 CNS.
Regarding `COc1ccc(-c2cc(-c3ccc(C)cc3)n(C3OC(COC(C)=O)C(OC(C)=O)C(OC(C)=O)C3OC(C)=O)c(=S)c2C#N)cc1` (stereo not given), the TGI in the assay on A549 NSCLC, in the assay on ACHN renal, in the assay on BT-549 breast, with HCT-15 colon, in the assay with KM12 colon and in the assay with LOX IMVI melanoma was over 100 µM each time. The TGI in the assay with NCI-H522 lung, with OVCAR-5 ovarian, in the assay on SF-268 CNS and with SF-539 CNS was over 100 µM throughout.
With `C(=N\NC1=NCCCCN1)/c1ccc2ccccc2c1`, the TGI in the assay on A549 NSCLC is over 100 µM; with ACHN renal it was over 100 µM; in the assay on BT-549 breast it was over 100 µM; in the assay on HCT-15 colon, 87.5 µM; with KM12 colon, over 100 µM; with LOX IMVI melanoma, 29.8 µM. Besides, the TGI in the assay on NCI-H522 lung was 87.1 µM; with OVCAR-5 ovarian it was 76.7 µM; with SF-268 CNS it was over 100 µM; with SF-539 CNS, 51.3 µM.
For `O=C(COc1cc(=O)oc2ccccc12)c1ccccc1`, the TGI was over 100 µM with A549 NSCLC; 36.4 µM with ACHN renal; over 100 µM in the assay with BT-549 breast; over 100 µM in the assay on HCT-15 colon; over 100 µM in the assay on KM12 colon; over 100 µM with LOX IMVI melanoma. Also, the TGI in the assay with NCI-H522 lung is 89.9 µM; in the assay on OVCAR-5 ovarian, over 100 µM; in the assay on SF-268 CNS it was over 100 µM; in the assay with SF-539 CNS, 58.7 µM.
With `Cc1ccc(C(=O)Nc2ccc(S(=O)(=O)O)c3cc(S(=O)(=O)O)cc(S(=O)(=O)O)c23)cc1NC(=O)c1cccc(NC(=O)Nc2cccc(C(=O)Nc3cc(C(=O)Nc4ccc(S(=O)(=O)O)c5cc(S(=O)(=O)O)cc(S(=O)(=O)O)c45)ccc3C)c2)c1`, the TGI in the assay with A549 NSCLC, in the assay on ACHN renal, with BT-549 breast, in the assay on HCT-15 colon, with KM12 colon and with LOX IMVI melanoma was over 100 µM in each case. Also, the TGI with NCI-H522 lung, in the assay with OVCAR-5 ovarian, in the assay with SF-268 CNS and in the assay with SF-539 CNS was over 100 µM throughout.
As to `CC1=NNC(=O)C1C1(C(=O)O)CC(c2c[nH]c3ccccc23)=NC(=S)N1` (stereo not given), the TGI in the assay on A549 NSCLC is over 100 µM; in the assay on ACHN renal, over 100 µM; in the assay with BT-549 breast it was over 100 µM; in the assay on HCT-15 colon it was over 100 µM; in the assay with KM12 colon, 36.9 µM; in the assay with LOX IMVI melanoma, 39.6 µM. In addition, the TGI in the assay on NCI-H522 lung is 62.6 µM; in the assay with OVCAR-5 ovarian it was over 100 µM; in the assay on SF-268 CNS, over 100 µM; with SF-539 CNS it was 67.9 µM.
Turning to `Cc1cc2ncn(CC(=O)O)c2cc1C`, the TGI in the assay on A549 NSCLC, in the assay with ACHN renal, in the assay with BT-549 breast, in the assay with HCT-15 colon, in the assay with KM12 colon and in the assay with LOX IMVI melanoma was over 100 µM throughout. For the same compound, the TGI in the assay with NCI-H522 lung, in the assay with OVCAR-5 ovarian, in the assay with SF-268 CNS and in the assay with SF-539 CNS was over 100 µM throughout.
As for `O=C(CCCc1cccc2[nH]c3c(c12)CN(Cc1ccccc1)CC3)c1ccc(F)cc1`, the TGI with A549 NSCLC, in the assay with ACHN renal, in the assay on BT-549 breast, in the assay on HCT-15 colon, in the assay with KM12 colon and with LOX IMVI melanoma was over 100 µM throughout. Also, the TGI in the assay with NCI-H522 lung was over 91.1 µM; with OVCAR-5 ovarian, over 100 µM; in the assay on SF-268 CNS it was over 100 µM; with SF-539 CNS, over 100 µM.

(Values after PubChem BioAssay (NCI).)
